Values quoted from earlier work, collected in patent US20040048871A1, “Use of high dose intravenous methotrexate, with leucovorin rescue, to treat early multiple sclerosis and other diseases of the central nervous system” (priority 2002, published 2004).
Like-named read-outs stand apart in the source and are kept apart here.

Key:
[1] = in vivo
[2] = for crossing of the blood brain barrier (BBB): in vivo
[3] = 8 g/m^2, four hour IV infusion, with leucovorin rescue
[4] = 2.5 g/m^2 sporadically via IV infusion, with leucovorin rescue
[5] = low-dose methotrexate 7.5 mg/week, orally

What does the source list for O=P1(N(CCCl)CCCl)NCCCO1 (centres unmarked) [cyclophosphamide]?
efficacy against the progression of MS [1]: some efficacy; crossing of the blood brain barrier (BBB) [2]: do not cross the blood brain barrier

With Nc1nc2c(c(=O)[nH]1)N(C=O)C(CNc1ccc(C(=O)N[C@@H](CCC(=O)O)C(=O)O)cc1)CN2 (some centres unmarked) [leucovorin] as the compound, how does the “crossing of the blood brain barrier (BBB)” value [2] read?
The value was “does not penetrate the BBB”.

Which “effect on the course of progressive MS” value [5] does the source give for CN(Cc1cnc2nc(N)nc(N)c2n1)c1ccc(C(=O)N[C@@H](CCC(=O)O)C(=O)O)cc1 [methotrexate] here?
The value was “impact the course of progressive MS”.

What about the toxicity [5] of the same compound?
The toxicity was “minimal toxicity”.

And the “upper extremity strength in MS patients” value (oral methotrexate treatments)?
Its value is “mild improvement”.

And the “results in treating CNS lymphomas” value [3]?
Its value is “promising results”.

And the toxicity [3]?
Its toxicity is “low toxicity”.

And the toxicity [4]?
Its toxicity is “no significant toxicity”.

And the “serum level sufficient to cross the BBB in cytotoxic amounts” value ([2]; administered orally)?
The value was “not sufficient to cross the BBB in cytotoxic amounts”.

Which “crossing of the blood brain barrier (BBB)” value [2] does the source give for O=C1c2c(O)ccc(O)c2C(=O)c2c(NCCNCCO)ccc(NCCNCCO)c21 [mitoxantrone] here?
Its value is “do not cross the blood brain barrier”.
